In ChEMBL document CHEMBL5038615, “Discovery of a cinnamyl piperidine derivative as new neddylation inhibitor for gastric cancer treatment” (Eur J Med Chem, 2021):

Legend:
A549 = assay: Antiproliferative activity against human A549 cells assessed as inhibition of cell proliferation measured after 72 hrs by MTT assay; assay type: functional, cell-based; details: A549, 72 h
MCF7 = assay: Antiproliferative activity against human MCF7 cells assessed as inhibition of cell proliferation measured after 72 hrs by MTT assay; assay type: functional, cell-based; details: MCF7, 72 h
HepG2 = assay: Antiproliferative activity against human HepG2 cells assessed as inhibition of cell proliferation measured after 72 hrs by MTT assay; assay type: functional, cell-based; details: HepG2, 72 h
MGC-803 = assay: Antiproliferative activity against human MGC-803 cells assessed as inhibition of cell proliferation measured after 72 hrs by MTT assay; assay type: functional, cell-based; details: MGC-803, 72 h
HGC-27 = assay: Antiproliferative activity against human HGC-27 cells assessed as inhibition of cell proliferation measured after 72 hrs by MTT assay; assay type: functional, cell-based; details: HGC-27, 72 h
[1] = Cytotoxicity against human GES1 cells assessed as inhibition of cell proliferation measured after 72 hrs by MTT assay; assay type: toxicity, cell-based

Row | Compound | IC50 (A549) [µM] | IC50 (MCF7) [µM] | IC50 (HepG2) [µM] | IC50 (MGC-803) [µM] | IC50 (HGC-27) [µM] | IC50 at 72 h [1] [µM]
1 | Cc1ccc(NC(=O)C2CCN(C/C=C/c3ccccc3)CC2)cc1 | 29.6 | 30 | 33.9 | 24.1 | – | –
2 | O=C(Nc1nc2ccc(Br)cc2s1)C1CCN(C/C=C/c2ccccc2)CC1 | 17.7 | 14.6 | 32.1 | 4.38 | – | –
3 | COc1ccccc1NC(=O)C1CCN(C/C=C/c2ccccc2)CC1 | > 100 | > 100 | 91.2 | 71.2 | – | –
4 | O=C(Nc1cccc(Br)c1)C1CCN(C/C=C/c2ccccc2)CC1 | 16.4 | 11.5 | 19.2 | 9.11 | – | –
5 | CN1CCN(c2ccc(NC(=O)C3CCN(C/C=C/c4ccccc4)CC3)cc2)CC1 | 19.9 | 44 | 35.2 | 14 | – | –
6 | O=C(Nc1nccs1)C1CCN(C/C=C/c2ccccc2)CC1 | 34.9 | 28.6 | 22.4 | 16.4 | – | –
7 | O=C(Nc1ccccc1)C1CCN(C/C=C/c2ccccc2)CC1 | 69.7 | 60.2 | 90.9 | 57.9 | – | –
8 | CCCCc1ccc(NC(=O)C2CCN(C/C=C/c3ccccc3)CC2)cc1 | 5.91 | 5.87 | 4.32 | 2.57 | – | –
9 | CCc1ccc(NC(=O)C2CCN(C/C=C/c3ccccc3)CC2)cc1 | 19.6 | 20 | 23.3 | 11.6 | – | –
10 | O=C(Nc1ccccn1)C1CCN(C/C=C/c2ccccc2)CC1 | 89.3 | 67.2 | 51.1 | 45.2 | – | –
11 | N#Cc1ccc(NC(=O)C2CCN(C/C=C/c3ccccc3)CC2)cc1 | 40.2 | 44.5 | 38.3 | 28.2 | – | –
12 | NS(=O)(=O)OC[C@@H]1CC(n2ccc3c(N[C@H]4CCc5ccccc54)ncnc32)C[C@@H]1O (single isomer, unassigned) [PEVONEDISTAT] | 47.8 | > 100 | 8.15 | 5.16 | 1.25 | 13.5
13 | O=C(NCc1ccccc1)C1CCN(C/C=C/c2ccccc2)CC1 | > 100 | > 100 | > 100 | > 100 | – | –
14 | O=C(Nc1cccc(C(F)(F)F)c1)C1CCN(C/C=C/c2ccccc2)CC1 | 15.6 | 16.1 | 11.4 | 9.59 | – | –
15 | COc1cccc(NC(=O)C2CCN(C/C=C/c3ccccc3)CC2)c1 | 50.5 | 42.6 | 78.6 | 37.2 | – | –
16 | O=c1[nH]cc(F)c(=O)[nH]1 [FLUOROURACIL] | 15.1 | 9.49 | 6.69 | 12.1 | – | –
17 | O=C(Nc1cc(-c2cccc(Br)c2)on1)C1CCN(C/C=C/c2ccccc2)CC1 | 6.53 | 4.87 | 4.42 | 4.61 | – | –
18 | O=C(Nc1ccc(F)c(Br)c1)C1CCN(C/C=C/c2ccccc2)CC1 | 11.7 | 13.5 | 8.19 | 9.27 | – | –
19 | COc1ccc(NC(=O)C2CCN(C/C=C/c3ccccc3)CC2)cc1 | 83.8 | > 100 | 88.8 | 58.2 | – | –
20 | O=C(Nc1cccc(F)c1)C1CCN(C/C=C/c2ccccc2)CC1 | 43.3 | 33 | 51.1 | 23.3 | – | –
21 | CC(C)c1ccc(NC(=O)C2CCN(C/C=C/c3ccccc3)CC2)cc1 | 9.43 | 9.1 | 12.2 | 5.2 | – | –
22 | O=C(Nc1cccc(Cl)c1)C1CCN(C/C=C/c2ccccc2)CC1 | 19.1 | 16.1 | 20 | 11.3 | – | –
23 | CCCc1ccc(NC(=O)C2CCN(C/C=C/c3ccccc3)CC2)cc1 | 9.47 | 9.03 | 9.41 | 5.21 | – | –
24 | O=C(Nc1cccc2cccnc12)C1CCN(C/C=C/c2ccccc2)CC1 | 51.6 | 34.8 | 29.5 | 38.1 | – | –
